In turn, `O=C(/C=C(/c1ccccc1)c1cccc(NS(=O)(=O)N2CCCCC2)c1)NO` [Compound 26, Z-3-[3-(1-Piperidinesulfonylamino)phenyl]-3-phenylpropenohydroxamic Acid] showed a melting point of 158 to 159 °C. `O=C(/C=C(/c1ccccc1)c1cccc(NS(=O)(=O)c2cccc3ccccc23)c1)NO` [Compound 27, Z-3-[3-(1-Naphthalenesulfonylamino)phenyl]-3-phenylpropenohydroxamic Acid] gave a melting point of 160 to 163 °C. Molecule `CN(C)c1cccc2c(S(=O)(=O)Nc3cccc(/C(=C\C(=O)NO)c4ccccc4)c3)cccc12` [Compound 30, Z-3-[3-[5-(Dimethylamino)-1-naphthalenesulfonylamino)phenyl]-3-phenylpropenohydroxamic Acid] returned a melting point of 123 to 125 °C.

Molecule `O=C(/C=C(/c1ccccc1)c1ccc(NS(=O)(=O)c2ccc([N+](=O)[O-])cc2)cc1)NO` [Compound 35, Z-3-[4-(4-Nitrobenzenesulfonylamino)phenyl]-3-phenylpropenohydroxamic Acid] displayed a melting point of 146 to 148 °C. Consider `O=C(/C=C(/c1ccccc1)c1cc(NS(=O)(=O)c2ccc3ccccc3c2)ccc1Cl)NO` [Compound 36, Z-3-[2-Chloro-5-(2-naphthalenesulfonylamino)phenyl]-3-phenylpropenohydroxamic Acid], for which the melting point lay in the range of 173 to 175 °C. `COc1ccc(S(=O)(=O)Nc2ccc(Cl)c(/C(=C\C(=O)NO)c3ccccc3)c2)cc1OC` [Compound 37, Z-3-[2-Chloro-5-(3,4-dimethoxybenzenesulfonylamino)phenyl]-3-phenylpropenohydroxamic Acid] gave a melting point of 127 to 130 °C. Next, `COc1ccc(C(=O)Nc2cccc(C(=CC(=O)NO)c3cccc(NC(=O)c4ccc(OC)cc4)c3)c2)cc1` [Compound 39, 3,3-bis[3-(4-Methoxybenzoylamino)phenyl]propenohydroxamic Acid]: 198 to 200 °C; `O=C(C=C(c1cccc(NS(=O)(=O)c2ccc(Br)cc2)c1)c1cccc(NS(=O)(=O)c2ccc(Br)cc2)c1)NO` [Compound 40, 3,3-bis [3-(4-Bromobenzenesulfonylamino)phenyl]propenohydroxamic Acid]: 137 to 141 °C.

On to `COc1ccc(S(=O)(=O)Nc2cccc(C(=CC(=O)NO)c3cccc(NS(=O)(=O)c4ccc(OC)c(OC)c4)c3)c2)cc1OC` [Compound 44, 3,3-bis[3-(3,4-Dimethoxybenzenesulfonylamino)phenyl]propenohydroxamic Acid], for which the melting point fell in the range of 132 to 135 °C. Molecule `O=C(C=C(c1cccc(NS(=O)(=O)c2ccc3ccccc3c2)c1)c1cccc(NS(=O)(=O)c2ccc3ccccc3c2)c1)NO` [Compound 45, 3,3-bis[3-(2-Naphthalenesulfonylamino)phenyl]propenohydroxamic Acid] had a melting point of 128 to 131 °C. Molecule `O=C(C=C(c1cccc(NS(=O)(=O)c2cccc3cccnc23)c1)c1cccc(NS(=O)(=O)c2cccc3cccnc23)c1)NO` [Compound 46, 3,3-bis[3-(8-Quinolinesulfonylamino)phenyl]propenohydroxamic Acid] came in with a melting point of 152 to 156 °C. With `O=C(NO)C(F)=C(c1cccc(NS(=O)(=O)c2cccc3cccnc23)c1)c1cccc(NS(=O)(=O)c2cccc3cccnc23)c1` [Compound 49, 2-Fluoro-3,3-bis[3-(8-quinolinesulfonylamino)phenyl]propenohydroxamic Acid], the melting point was 150 to 153 °C. In turn, `COc1ccc(C(=O)Nc2cccc(/C(=C\C(=O)NO)c3ccccc3)c2)cc1` [Compound 53, Z-3-[3-(4-Methoxybenzoylamino)phenyl]-3-phenylpropenohydroxamic Acid] returned a melting point of 134 to 137 °C.

In turn, `COc1ccc(S(=O)(=O)Nc2ccc(/C(=C\C(=O)NO)c3ccccc3)cc2)cc1` [Compound 54, Z-3-[4-(4-Methoxybenzenesulfonylamino)phenyl]-3-phenylpropenohydroxamic Acid] showed a melting point of 188 to 191 °C.

For the origin of these results see US20040029928A1, “Novel propenohydroxamic acid derivatives” (priority 2000, published 2004).
